What was measured:
WT EZH2 = WT EZH2 (Homo sapiens (Human), UniProt Q15910); test: WT EZH2 nucleosome assay (10X SAM, high SAM conditions); format: biochemical; conditions: 15 uM SAM, Ki app from competitive inhibition fit, read-out: WT EZH2 Nucleosome assay (10X SAM) Ki
EZH2 Mutant Y641N = EZH2 Mutant Y641N (Homo sapiens (Human), UniProt Q15910, Y641N); test: EZH2 Mutant Y641N nucleosome assay; format: biochemical; conditions: PRC2 4-protein complex 6 nM, 1.5 μM SAM, HeLa oligonucleosomes; read-out: EZH2 Mutant Y641N Nucleosome assay IC50
Chain of EZH2 Mutant Y641N (Q15910 whole entry Y641N, looked up): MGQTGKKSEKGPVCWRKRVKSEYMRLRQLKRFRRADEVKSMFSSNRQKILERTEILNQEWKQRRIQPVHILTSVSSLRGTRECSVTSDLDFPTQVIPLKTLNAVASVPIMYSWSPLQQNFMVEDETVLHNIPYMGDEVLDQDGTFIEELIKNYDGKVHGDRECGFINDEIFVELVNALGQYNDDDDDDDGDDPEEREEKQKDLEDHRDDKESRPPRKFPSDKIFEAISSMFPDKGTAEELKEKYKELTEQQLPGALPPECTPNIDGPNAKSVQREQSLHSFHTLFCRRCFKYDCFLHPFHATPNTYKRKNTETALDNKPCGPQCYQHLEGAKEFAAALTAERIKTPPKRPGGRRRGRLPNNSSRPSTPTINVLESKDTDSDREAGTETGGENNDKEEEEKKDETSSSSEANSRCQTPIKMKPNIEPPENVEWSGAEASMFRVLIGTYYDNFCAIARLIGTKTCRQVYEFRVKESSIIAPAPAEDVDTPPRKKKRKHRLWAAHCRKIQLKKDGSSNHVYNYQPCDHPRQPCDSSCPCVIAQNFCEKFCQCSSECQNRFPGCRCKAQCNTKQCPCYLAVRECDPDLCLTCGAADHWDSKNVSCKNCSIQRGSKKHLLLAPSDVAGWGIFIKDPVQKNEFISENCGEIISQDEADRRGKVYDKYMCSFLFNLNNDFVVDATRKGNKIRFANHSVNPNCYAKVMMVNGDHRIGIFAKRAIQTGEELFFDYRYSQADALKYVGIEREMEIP
Chain of EZH2 Mutant Y641N (O75530 whole entry partner, looked up): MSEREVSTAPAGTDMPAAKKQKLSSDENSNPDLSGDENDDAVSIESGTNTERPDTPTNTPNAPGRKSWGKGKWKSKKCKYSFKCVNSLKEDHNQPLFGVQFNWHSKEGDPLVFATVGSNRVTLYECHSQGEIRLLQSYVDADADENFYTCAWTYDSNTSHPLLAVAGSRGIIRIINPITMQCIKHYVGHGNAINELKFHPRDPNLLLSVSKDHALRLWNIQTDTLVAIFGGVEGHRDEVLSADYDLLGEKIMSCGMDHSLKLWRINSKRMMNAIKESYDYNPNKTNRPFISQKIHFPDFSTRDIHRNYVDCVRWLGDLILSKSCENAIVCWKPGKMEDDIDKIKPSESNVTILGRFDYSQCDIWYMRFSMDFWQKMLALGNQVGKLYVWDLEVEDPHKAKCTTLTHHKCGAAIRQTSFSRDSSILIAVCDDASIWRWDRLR
Chain of EZH2 Mutant Y641N (Q15022 whole entry partner, looked up): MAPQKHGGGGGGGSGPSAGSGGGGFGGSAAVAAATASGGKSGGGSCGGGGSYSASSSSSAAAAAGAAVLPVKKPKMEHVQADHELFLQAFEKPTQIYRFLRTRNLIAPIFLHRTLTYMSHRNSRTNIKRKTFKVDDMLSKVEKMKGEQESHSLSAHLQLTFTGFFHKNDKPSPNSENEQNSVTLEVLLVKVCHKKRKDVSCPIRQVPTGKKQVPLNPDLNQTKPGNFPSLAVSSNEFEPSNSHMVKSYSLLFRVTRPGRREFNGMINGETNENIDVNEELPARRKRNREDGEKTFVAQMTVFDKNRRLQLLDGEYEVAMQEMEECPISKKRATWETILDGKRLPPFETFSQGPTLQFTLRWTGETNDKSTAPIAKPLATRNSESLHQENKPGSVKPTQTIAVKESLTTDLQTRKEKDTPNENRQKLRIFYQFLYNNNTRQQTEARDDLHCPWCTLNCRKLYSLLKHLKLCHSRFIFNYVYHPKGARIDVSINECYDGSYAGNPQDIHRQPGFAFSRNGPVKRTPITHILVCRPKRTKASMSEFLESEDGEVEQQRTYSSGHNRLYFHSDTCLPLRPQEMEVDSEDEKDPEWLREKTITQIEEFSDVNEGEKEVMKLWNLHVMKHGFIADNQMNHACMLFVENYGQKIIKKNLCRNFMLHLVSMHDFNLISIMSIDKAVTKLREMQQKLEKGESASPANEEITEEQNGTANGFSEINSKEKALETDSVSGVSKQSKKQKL
Chain of EZH2 Mutant Y641N (Q09028 whole entry partner, looked up): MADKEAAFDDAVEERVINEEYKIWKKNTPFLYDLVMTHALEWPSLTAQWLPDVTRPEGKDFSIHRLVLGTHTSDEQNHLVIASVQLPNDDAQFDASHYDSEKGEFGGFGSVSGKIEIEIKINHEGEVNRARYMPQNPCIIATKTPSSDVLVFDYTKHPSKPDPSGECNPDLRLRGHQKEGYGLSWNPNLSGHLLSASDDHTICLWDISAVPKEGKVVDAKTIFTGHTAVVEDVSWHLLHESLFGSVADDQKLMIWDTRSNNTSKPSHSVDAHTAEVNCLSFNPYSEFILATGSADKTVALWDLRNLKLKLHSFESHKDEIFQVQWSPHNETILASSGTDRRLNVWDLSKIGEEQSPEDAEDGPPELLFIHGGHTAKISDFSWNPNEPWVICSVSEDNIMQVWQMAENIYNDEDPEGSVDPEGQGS

Chain of WT EZH2 (Q15910 whole entry, looked up): as the sequence (Q15910 whole entry Y641N, looked up) above, with N641Y counted along it
Chain of WT EZH2 (O75530 whole entry partner, looked up): as the sequence (O75530 whole entry partner, looked up) above
Chain of WT EZH2 (Q15022 whole entry partner, looked up): as the sequence (Q15022 whole entry partner, looked up) above
Chain of WT EZH2 (Q09028 whole entry partner, looked up): as the sequence (Q09028 whole entry partner, looked up) above

COC(c1cc(Cl)c2c(c1Cl)C(=O)N(Cc1c(C)cc(C)[nH]c1=O)CC2)C1CC(=O)N(C)C1 (single isomer, unassigned) [Example 180]
Ki (WT EZH2): 390 nM
IC50 (EZH2 Mutant Y641N): 2160 nM

COC(c1cc(C)c2c(c1Cl)C(=O)N(Cc1c(C)cc(C)[nH]c1=O)CC2)C1CN(C2COC2)C1 (single isomer, unassigned) [Example 181]
Ki (WT EZH2): 1 nM
IC50 (EZH2 Mutant Y641N): 41 nM

COC(c1cc(C)c2c(c1Cl)C(=O)N(Cc1c(C)cc(C)[nH]c1=O)CC2)C1CN(C2COC2)C1 (single isomer, unassigned) [Example 182]
Ki (WT EZH2): 2230 nM
IC50 (EZH2 Mutant Y641N): 9150 nM

Cc1cc(C)c(CN2CCc3c(Cl)cc(C(C)C4CN(C(=O)CO)C4)c(Cl)c3C2=O)c(=O)[nH]1 (single isomer, unassigned) [Example 183]
Ki (WT EZH2): 56 nM
IC50 (EZH2 Mutant Y641N): 517 nM

Cc1cc(C)c(CN2CCc3c(Cl)cc(C(C)C4CN(C(=O)CO)C4)c(Cl)c3C2=O)c(=O)[nH]1 (single isomer, unassigned) [Example 184]
Ki (WT EZH2): 0.6 nM
IC50 (EZH2 Mutant Y641N): 5 nM

Cc1cc(C)c(CN2CCc3c(Cl)cc(C(C)C4CN(S(C)(=O)=O)C4)c(Cl)c3C2=O)c(=O)[nH]1 (single isomer, unassigned) [Example 185]
Ki (WT EZH2): 1 nM
IC50 (EZH2 Mutant Y641N): 12 nM

Cc1cc(C)c(CN2CCc3c(Cl)cc(C(C)C4CN(S(C)(=O)=O)C4)c(Cl)c3C2=O)c(=O)[nH]1 (single isomer, unassigned) [Example 186]
Ki (WT EZH2): 14 nM
IC50 (EZH2 Mutant Y641N): 240 nM

Cc1cc(C)c(CN2CCc3c(Cl)cc(C(C)C4CN(C)C4)c(Cl)c3C2=O)c(=O)[nH]1 (single isomer, unassigned) [Example 187]
Ki (WT EZH2): 1 nM
IC50 (EZH2 Mutant Y641N): 10 nM

Cc1cc(C)c(CN2CCc3c(Cl)cc(C(C)C4CN(C)C4)c(Cl)c3C2=O)c(=O)[nH]1 (single isomer, unassigned) [Example 188]
Ki (WT EZH2): 14 nM
IC50 (EZH2 Mutant Y641N): 151 nM

Cc1cc(C)c(CN2CCc3c(Cl)cc(C(C)C4CNC4)c(Cl)c3C2=O)c(=O)[nH]1 (single isomer, unassigned) [Example 189]
Ki (WT EZH2): 0.7 nM
IC50 (EZH2 Mutant Y641N): 6 nM

Cc1cc(C)c(CN2CCc3c(Cl)cc(C(C)C4CNC4)c(Cl)c3C2=O)c(=O)[nH]1 (single isomer, unassigned) [Example 190]
Ki (WT EZH2): 16 nM
IC50 (EZH2 Mutant Y641N): 100 nM

COc1cc(C)[nH]c(=O)c1CN1CCc2c(C)cc(C(C)C3CN(S(C)(=O)=O)C3)c(Cl)c2C1=O (single isomer, unassigned) [Example 191]
Ki (WT EZH2): 0.3 nM
IC50 (EZH2 Mutant Y641N): 5 nM

COc1cc(C)[nH]c(=O)c1CN1CCc2c(C)cc(C(C)C3CN(S(C)(=O)=O)C3)c(Cl)c2C1=O (single isomer, unassigned) [Example 192]
Ki (WT EZH2): 117 nM
IC50 (EZH2 Mutant Y641N): 605 nM

Cc1cc(C)c(CN2CCc3c(C)cc(C(C)C4CN(S(C)(=O)=O)C4)c(Cl)c3C2=O)c(=O)[nH]1 (single isomer, unassigned) [Example 193]
Ki (WT EZH2): 1 nM
IC50 (EZH2 Mutant Y641N): 10 nM

Cc1cc(C)c(CN2CCc3c(C)cc(C(C)C4CN(S(C)(=O)=O)C4)c(Cl)c3C2=O)c(=O)[nH]1 (single isomer, unassigned) [Example 194]
Ki (WT EZH2): 44 nM
IC50 (EZH2 Mutant Y641N): 309 nM

Cc1cc(C)c(CN2CCc3c(C)cc(C(C)C4COC4)c(Cl)c3C2=O)c(=O)[nH]1 (single isomer, unassigned) [Example 195]
Ki (WT EZH2): 46 nM
IC50 (EZH2 Mutant Y641N): 216 nM

Cc1cc(C)c(CN2CCc3c(C)cc(C(C)C4COC4)c(Cl)c3C2=O)c(=O)[nH]1 (single isomer, unassigned) [Example 196]
Ki (WT EZH2): 0.2 nM
IC50 (EZH2 Mutant Y641N): 3 nM

COc1cc(C)[nH]c(=O)c1CN1CCc2c(C)cc(C(C)C3COC3)c(Cl)c2C1=O (single isomer, unassigned) [Example 197]
Ki (WT EZH2): 33 nM
IC50 (EZH2 Mutant Y641N): 62 nM

COc1cc(C)[nH]c(=O)c1CN1CCc2c(C)cc(C(C)C3COC3)c(Cl)c2C1=O (single isomer, unassigned) [Example 198]
Ki (WT EZH2): 0.01 nM
IC50 (EZH2 Mutant Y641N): 1 nM

COc1cc(C)[nH]c(=O)c1CN1CCc2c(Cl)cc(C(C)C3CCN(C(=O)CO)CC3)c(Cl)c2C1=O (single isomer, unassigned) [Example 200]
Ki (WT EZH2): 0.1 nM
IC50 (EZH2 Mutant Y641N): 2 nM

COc1cc(C)[nH]c(=O)c1CN1CCc2c(Cl)cc(C(C)C3CCN(C(=O)CO)CC3)c(Cl)c2C1=O (single isomer, unassigned) [Example 201]
Ki (WT EZH2): 7 nM
IC50 (EZH2 Mutant Y641N): 37 nM

COc1cc(C)[nH]c(=O)c1CN1CCc2c(Cl)cc(C(C3COC3)N(C)C)c(Cl)c2C1=O (single isomer, unassigned) [Example 203]
Ki (WT EZH2): 55 nM
IC50 (EZH2 Mutant Y641N): 204 nM

COc1cc(C)[nH]c(=O)c1CN1CCc2c(Cl)cc(C(C3COC3)N(C)C)c(Cl)c2C1=O (single isomer, unassigned) [Example 204]
Ki (WT EZH2): 2 nM
IC50 (EZH2 Mutant Y641N): 62 nM

Cc1cc(C)c(CN2CCc3c(Cl)cc(C(F)C4CCN(C(=O)CO)CC4)c(Cl)c3C2=O)c(=O)[nH]1 (single isomer, unassigned; (+)) [Example 8, (+)-5,8-dichloro-2-[(4,6-dimethyl-2-oxo-1,2-dihydropyridin-3-yl)methyl]-7-{fluoro[1-(hydroxyacetyl)piperidin-4-yl]methyl}-3,4-dihydroisoquinolin-1(2H)-one]
Ki (WT EZH2): 652 nM
IC50 (EZH2 Mutant Y641N): 5020 nM

Cc1cc(C)c(CN2CCc3c(Cl)cc(C(C)N4CCOCC4)c(Cl)c3C2=O)c(=O)[nH]1 (single isomer, unassigned; (+)) [Example 90, (+)-5,8-dichloro-2-[(4,6-dimethyl-2-oxo-1,2-dihydropyridin-3-yl)methyl]-7-[1-(morpholin-4-yl)ethyl]-3,4-dihydroisoquinolin-1(2H)-one]
Ki (WT EZH2): 459 nM
IC50 (EZH2 Mutant Y641N): 5630 nM

Cc1cc(C)c(CN2CCc3c(Cl)cc(C(F)C4CCN(C(=O)CO)CC4)c(Cl)c3C2=O)c(=O)[nH]1 (single isomer, unassigned; (-)) [Example 9, (−)-5,8-dichloro-2-[(4,6-dimethyl-2-oxo-1,2-dihydropyridin-3-yl)methyl]-7-{fluoro[1-(hydroxyacetyl)piperidin-4-yl]methyl}-3,4-dihydroisoquinolin-1(2H)-one]
Ki (WT EZH2): 5 nM
IC50 (EZH2 Mutant Y641N): 35 nM

Cc1cc(C)c(CN2CCc3c(Cl)cc(C(C)N4CCOCC4)c(Cl)c3C2=O)c(=O)[nH]1 (single isomer, unassigned; (-)) [Example 91, (−)-5,8-dichloro-2-[(4,6-dimethyl-2-oxo-1,2-dihydropyridin-3-yl)methyl]-7-[1-(morpholin-4-yl)ethyl]-3,4-dihydroisoquinolin-1(2H)-one]
Ki (WT EZH2): 1 nM
IC50 (EZH2 Mutant Y641N): 23 nM

Cc1cc(C)c(CN2CCc3c(Cl)cc(C(CO)N4CC[C@@H](F)C4)c(Cl)c3C2=O)c(=O)[nH]1 (stereo partly drawn) [Example 5, 5,8-dichloro-2-[(4,6-dimethyl-2-oxo-1,2-dihydropyridin-3-yl)methyl]-7-{1-[(3R)-3-fluoropyrrolidin-1-yl]-2-hydroxyethyl}-3,4-dihydroisoquinolin-1(2H)-one]
Ki (WT EZH2): 33 nM
IC50 (EZH2 Mutant Y641N): 189 nM

Cc1cc(C)c(CN2CCc3c(Cl)cc([C@H](CO)[C@@H]4CCCO4)c(Cl)c3C2=O)c(=O)[nH]1 [Example 12, 5,8-dichloro-2-[(4,6-dimethyl-2-oxo-1,2-dihydropyridin-3-yl)methyl]-7-{(1R)-2-hydroxy-1-[(2S)-tetrahydrofuran-2-yl]ethyl}-3,4-dihydroisoquinolin-1(2H)-one]
Ki (WT EZH2): 4 nM
IC50 (EZH2 Mutant Y641N): 16 nM

Reference: patent US10570121B2, “Substituted dihydroisoquinolinone compounds” (priority 2014, dated 2020)
